Several values for one entry are separate records, joined by “and”; a condition that tells them apart may be missing. Equal values may be shown once.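 These data come from cells grown in 96-well plates and exposed to compound for 48 hours at five concentrations. At the GI50, growth is halved. Definition used: TGI = concentration required for complete inhibition of growth.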
Test system: MDA-MB-468 breast
Assay: growth of human tumour cells (NCI), 48 h

Compound | GI50 | TGI
COc1ccc(CNCCCN2C(=O)c3ccc4c5c(ccc(c35)C2=O)C(=O)N(CCCNCc2ccc(OC)c(OC)c2OC)C4=O)c(OC)c1OC | 79.3 nM | 151 nM
O=C1c2ccccc2C(=O)c2c1oc1c2c(=O)[nH]c2ccc(Cl)cc21 | 249 nM | 868 nM
COc1ccc2nc3c(cc2c1)C(=O)CC(c1ccccc1)C3 (stereo unspecified) | 4080 nM | > 100000 nM
CCOC(=O)c1c2c(n3ccc(NC(=O)CCN4CCCCC4)cc13)C(=O)c1ncccc1C2=O | 1760 nM | 3390 nM
COc1ccc(-c2cc(-c3ccc(OC)cc3)nc(NCCCNc3ccnc4cc(Cl)ccc34)n2)cc1 | 1270 nM | 2790 nM
O=[N+]([O-])c1ccc(N=Nc2c(Cl)cc(O)cc2Cl)cc1 | 772 nM | 5810 nM
CCn1c(SCC(=O)Nc2cc(C(F)(F)F)ccc2Cl)nc2ccccc2c1=O | 14000 nM | > 100000 nM
CCc1cccc(NC(=O)Nc2ccc(Oc3ccc4nc(NC(=O)OC)[nH]c4c3)cc2)c1 | 75.1 nM | 2960 nM
CC[C@H]1CCC/C=C/[C@@H]2C[C@H](O)C[C@H]2[C@H](O)/C=C/C(=O)O1 | – | 16.7 nM
COC(=O)C1=C(C(=O)ON)[C@@H]2C=C[C@@]1([C@@H](Cc1ccccc1)Nc1ccccc1)O2 | 1480 nM | 2970 nM
CC(=O)Nc1ccc(OC(C)=O)cc1 | < 10 nM | < 101 nM
CCOC(=O)Nc1ccc2c(c1)C(=O)N(CC)c1ccccc1O2 | 201 nM | –
O=c1cc(-c2ccccc2)oc2c1ccc1ccccc12 | 23600 nM | 95400 nM
COc1c(O)cc2c(c1OC)-c1ccc(SC)c(=O)cc1C(NC(C)=O)CC2 (stereo unspecified) | 3020 nM | > 100000 nM
S=C1SCN(Cc2ccccc2)CN1Cc1ccccc1 | 1200 nM | 17100 nM
CC[C@]12C=CCN3CC[C@@]4(c5ccc(OC)cc5N(C)[C@H]4[C@@](O)(C(=O)OC)[C@@H]1OC(=O)CCC(=O)O[C@H]1CC[C@H]4[C@@H]5CC[C@H]6CC(=O)CC[C@]6(C)[C@H]5CC[C@]14C)[C@@H]32 | 3130 nM | > 100000 nM
C/C(CC(C)(C)N1CC1)=N\NC(=O)Nc1cccc2ccccc12 | 1920 nM | 4610 nM

Compound | GI50 | TGI
O=C1/C(=C/c2ccc(F)cc2)CN(C(=O)C(Cl)Cl)C/C1=C\c1ccc(F)cc1 | 203 nM | 480 nM
CCCCOc1ccc(S(=O)(=O)N2CCN(c3nccc(N4CCOCC4)n3)CC2)cc1 | 456 nM | 2530 nM
O=C(c1ccccc1)C1OC1C(=O)c1ccccc1 (stereo unspecified) | 1710 nM | 6720 nM
COc1ccc([C@@H]2[C@@H](O)C(=O)N2c2cc(OC)c(OC)c(OC)c2)cc1Cl | < 14.1 nM | > 35900 nM
CCCS(=O)(=O)Nc1cccc(Nc2ncnc3cc(NC(=O)CCl)ccc23)c1Cl | 3160 nM | 8520 nM
O=C(CCCC(=O)N/N=C/c1cc(Cl)ccc1O)N/N=C\c1cc(Cl)ccc1O | 2220 nM | 9300 nM
COc1ccc(C2CC(c3ccc(OC)cc3O)=NN2c2ccc(S(N)(=O)=O)cc2)cc1 (stereo unspecified) | 22300 nM | > 100000 nM
O=C(Nc1n[nH]c2nc(-c3ccc(O)cc3)c(Br)cc12)C1CC1 | 3930 nM | 8790 nM
O=C1c2cc3c(cc2-c2c1c1ccc(F)cc1c(=O)n2C[C@H](O)[C@H](O)[C@H](O)CO)OCO3 | 64.6 nM | 213 nM
C#Cc1cccc(NC(=O)c2cccc(NC(=O)CCl)c2)c1 | 17400 nM | 52700 nM
COc1cc(NS(C)(=O)=O)ccc1Cc1c2ccccc2nc2ccccc12 | 310 nM | 1810 nM
CC(C)=Cc1cccc2[nH]c(O)c(N=Nc3ccc(S(N)(=O)=O)cc3)c12 | > 5220 nM | > 25000 nM
CCN1C(=O)N(CC)C2C1NN=c1s/c(=C\c3ccc(C(F)(F)F)cc3)c(=O)n12 (stereo unspecified) | 318 nM | 24200 nM
O=C(Nc1cn[nH]c1-c1nc2ccc(CN3CCOCC3)cc2[nH]1)NC1CC1 | 35.5 nM and 207 nM | 1670 nM and 9370 nM
COc1cc2c(cc1O)c(=O)n(CCN(C)C)c1c3cc4c(cc3ncc21)OCO4 | < 10 nM | 14 nM
Cc1ccc(-c2nc(/C=N/Nc3cc(C)nc4ccc(Br)cc34)c(C)o2)cc1 | 1950 nM | 3870 nM
COc1ccc(C2=NN(C(C)=O)C(c3ccc(Oc4ccnc5cc(Cl)ccc45)c(OC)c3)C2)cc1 (stereo unspecified) | 7430 nM | 65100 nM
